Test results from patent US8802692B2, “Synergistic effects between sphingosine-1-phosphate receptor antagonists and antimicrotubule agents” (Exelixis, Inc., priority 2008, dated 2014).

Assays:
Assay type in all cases: in vivo, Nude mice
[1] = tested on: human MDA-MB-231 breast cancer cells (ATCC#HTB-26); experiment: MDA-MB-231 breast cancer xenograft, S1P1R antagonist + docetaxel; conditions: docetaxel alone 7 mg/kg q3d ip; start 96 mgs
Procedure: In this experiment, a maximum efficacy dose of an S1P1R receptor antagonist was used with an optimal dose of docetaxol (Haorui Pharma Chem, Inc; CAS#114977-28-5). Compound #2, 50, 52, or 75 were used in these experiments. Nude mice (athymic female mice, Taconic Farms, Inc., 10 animals per group) were inoculated subcutaneously with human MDA-MB-231 breast cancer cells (ATCC#HTB-26) (1×10^6 cells per animal). After tumors were allowed to grow for 17 days, one group of animals was treated with docetaxel at a dose of 7 mg/kg q3d ip. One group of animals was treated with a specific dose of S1P1R receptor antagonist and the same dose of docetaxel using the same schedule used for the individual docetaxel group. Finally, a control group was treated with the vehicles used for each agent individually. Tumor dimensions were measured by calipers and then converted to weight using the formula: tumor weight (mg)=[tumor volume=length (mm)×width^2(mm^2)]/2. Animals were also monitored for weight loss as an indicator of signs of toxicity. The S1P1R receptor antagonist was formulated in a composition containing 10% NMP (n-methyl pyrrolidone)+90% corn oil. […]
Cells were inoculated subcutaneously on day 0 and allowed to grow for 17 days. […] Dosing continued for 7 cycles (q3d) and tumors in each of the three groups were measured and averaged. […]

[2] = tested on: human non-small cell lung carcinoma cells (ATCC #HTB-56); experiment: Non-small cell lung carcinoma xenograft (Calu-6 XN model), S1P1R antagonist + paclitaxel; conditions: paclitaxel alone 15 mg/kg q3d ip; dosing day 9 to day 31; control about 1500 mgs
Procedure: In this experiment, a maximum efficacy dose of an S1P1R receptor antagonist was used with an optimal dose of paclitaxel (MP Biomedicals cat #193532). Nude mice (athymic female mice, Taconic Farms, Inc., 10 animals per group) were inoculated subcutaneously with human non-small cell lung carcinoma cells (ATCC #HTB-56) (1×10^6 cells per animal). After tumors were allowed to grow for 9 days, one group of animals was treated with a S1P1R receptor antagonist (100 mg/kg qd po). A second group of animals was treated with paclitaxel at a dose of 15 mg/kg q3d ip. A third group of animals was treated with a S1P1R receptor antagonist and paclitaxel using the same dose and schedule used for the individual agents. A fourth control group was treated with the vehicles used for each agent individually. Tumor dimensions were measured by calipers and then converted to weight using the formula: tumor weight (mg)=[tumor volume=length (mm)×[…]]/2. Animals were also monitored for weight loss as an indicator of signs of toxicity. […]
Cells were inoculated subcutaneously on day 0 and allowed to grow for 9 days. […] Dosing continued until day 31 and tumors from some animals in each of the four groups were measured and averaged. Some animals in the paclitaxel group and the combined treatment group were monitored after treatment stopped for a period of time. […]

[3] = tested on: human MDA-MB-231 cells breast cancer cells (ATCC #HTB-26); experiment: MDA-MB-231 breast cancer xenograft, S1P1R antagonist + paclitaxel; conditions: paclitaxel alone 7.5 mg/kg q3d ip; start 100 mgs
Procedure: In this experiment, 4 different doses of an S1P1R receptor antagonist, 0.3 mgs/kg, 3 mgs/kg, 10 mgs/kg or 30 mgs/kg was used with an optimal dose of paclitaxel (MP Biomedicals cat #193532). Nude mice (athymic female mice, Taconic Farms, Inc., 10 animals per group) were inoculated subcutaneously with human MDA-MB-231 cells breast cancer cells (ATCC #HTB-26) (1×10^6 cells per animal). After tumors were allowed to grow for 21 days, one group of animals was treated with paclitaxel at a dose of 7.5 mg/kg q3d ip. Four groups of animals were treated with a specific concentration of S1P1R receptor antagonist and the same concentration of paclitaxel using the same schedule used for the individual paclitaxel group. Finally, a control group was treated with the vehicles used for each agent individually. Tumor dimensions were measured by calipers and then converted to weight using the formula: tumor weight (mg)=[tumor volume=length (mm)×[…]]/2. Animals were also monitored for weight loss as an indicator of signs of toxicity. The S1P1R Receptor antagonist was formulated in a compostion containing 10% NMP (n-methyl pyrrolidone)+90% corn oil. […]
Cells were inoculated subcutaneously on day 0 and allowed to grow for 21 days. […] Dosing continued for 19 days and tumors in each of the four groups were measured and averaged. […]

[4] = tested on: human MDA-MB-231 breast cancer cells (ATCC# HTB-26); experiment: MDA-MB-231 breast cancer xenograft, S1P1R antagonist + vincristine; conditions: start 95 mgs
Procedure: In this experiment, a maximum efficacy dose of an S1P1R receptor antagonist was used with doses of vincristine (Yes Pharma, Ltd., CAS#2068-78-2, Lot#80702). Compound #2, 50, 52, or 75 were used in these experiments. Nude mice (athymic female mice, Taconic Farms, Inc., 10 animals per group) were inoculated subcutaneously with human MDA-MB-231 breast cancer cells (ATCC# HTB-26) (1×10^6 cells per animal). After tumors were allowed to grow for 19 days, two groups of animals were treated with vincristine at doses of 0.1 or 1 mg/kg q3d iv. One group of animals was treated with a specific concentration of S1P1R receptor antagonist. Two groups of animals were treated with a specific dose of S1P1R receptor antagonist and the same dose of vincristine using the same schedule used for the individual vincristine groups. Finally, a control group was treated with the vehicles used for each agent individually. Tumor dimensions were measured by calipers and then converted to weight using the formula: tumor weight (mg)=[tumor volume=length (mm)×width^2(mm^2)]/2. Animals were also monitored for weight loss as an indicator of signs of toxicity. […]
Cells were inoculated subcutaneously on day 0 and allowed to grow for 19 days. […] Dosing continued for 8 cycles (q3d) and tumors in each of the six groups were measured and averaged. […]

Q: How did the “average tumor weight after 7 cycles of treatment” value [1] turn out when CC(=O)O[C@@]12CO[C@@H]1C[C@H](O)[C@@]1(C)C(=O)[C@H](O)C3=C(C)[C@@H](OC(=O)[C@H](O)[C@@H](NC(=O)OC(C)(C)C)c4ccccc4)C[C@@](O)([C@@H](OC(=O)c4ccccc4)[C@H]21)C3(C)C [docetaxel] was run?
A: Its value is “about 310 mgs”.

Q: With CC(=O)O[C@H]1C(=O)[C@@]2(C)[C@H]([C@H](OC(=O)c3ccccc3)[C@]3(O)C[C@H](OC(=O)[C@H](O)[C@@H](NC(=O)c4ccccc4)c4ccccc4)C(C)=C1C3(C)C)[C@]1(OC(C)=O)CO[C@@H]1C[C@@H]2O [paclitaxel] as the compound, how does the “average tumor weight after treatment” value [2] read?
A: The value was “about 550 mgs”.

Q: What about the “average tumor weight after 19 days of treatment” value [3] of the same compound?
A: Its value is “about 325 mgs”.

Q: What does the source list for CC[C@]1(O)C[C@H]2CN(CCc3c([nH]c4ccccc34)[C@@](C(=O)OC)(c3cc4c(cc3OC)N(C=O)[C@H]3[C@@](O)(C(=O)OC)[C@H](OC(C)=O)[C@]5(CC)C=CCN6CC[C@]43[C@@H]65)C2)C1 [vincristine]?
A: average tumor weight after 8 cycles of treatment ([4]; vincristine alone 0.1 mg/kg q3d iv): 659 mg; average tumor weight after 8 cycles of treatment ([4]; vincristine alone 1 mg/kg q3d iv): 26 mg
